Test results reported in the supplement of paper PMC11061612.

Columns and labels:
[1] = system: NCI-H2085 (Non-Small Cell Lung Carcinoma); experiment: combination Emax (second highest fraction inhibited in the dose matrix, 72 h); higher = more inhibition; extreme values may be limits of the assay
Method in brief: (§1)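 Bliss excess equals the observed combination effect minus the expected value EA + EB − EA·EB, where EA and EB are the effects of each agent alone. Combination Emax is the second-highest inhibition within the matrix. Inhibition was scaled from CellTiter-Glo 2.0 luminescence, with 0 set by vehicle wells and 1 by blank wells, after 72 hours of two-drug dosing of cells plated in 1536-well plates.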

[2] = system: CCRF-CEM (T-Lymphoblastic Leukemia); experiment: as above
Method in brief: as §1

[3] = system: CaR-1 (Colorectal Carcinoma); experiment: as above
Method in brief: as §1

[4] = system: HO-1-N-1 (Oral Cavity Carcinoma); experiment: as above
Method in brief: as §1

[5] = system: KURAMOCHI (Ovarian Carcinoma); experiment: as above
Method in brief: as §1

KELLY (Neuroblastoma) = experiment: as above
Method in brief: as §1

[6] = system: LB831-BLC (Bladder Carcinoma); experiment: as above
Method in brief: as §1

[7] = system: NCI-H82 (Small Cell Lung Carcinoma); experiment: as above
Method in brief: as §1

[8] = system: CAL-148 (Breast Carcinoma); experiment: as above
Method in brief: as §1

[9] = system: LS-180 (Colorectal Carcinoma); experiment: as above
Method in brief: as §1

[10] = system: Hs-578-T (Breast Carcinoma); experiment: as above
Method in brief: as §1

[11] = system: UM-UC-3 (Bladder Carcinoma); experiment: as above
Method in brief: as §1

HOS (Osteosarcoma) = experiment: as above
Method in brief: as §1

[12] = system: HT-1376 (Bladder Carcinoma); experiment: as above
Method in brief: as §1

T98G (Glioblastoma) = experiment: as above
Method in brief: as §1

[13] = system: Ramos-2G6-4C10 (Burkitt's Lymphoma); experiment: as above
Method in brief: as §1

[14] = system: CCRF-CEM (T-Lymphoblastic Leukemia); experiment: Bliss excess, mean over the matrix (fraction); higher = more synergy
Method in brief: as §1

[15] = system: TE-15 (Esophageal Squamous Cell Carcinoma); experiment: as above
Method in brief: as §1

[16] = system: LB831-BLC (Bladder Carcinoma); experiment: as above
Method in brief: as §1

[17] = system: NCI-H82 (Small Cell Lung Carcinoma); experiment: as above
Method in brief: as §1

Compound: CN(CCO)CC[C@H](CSc1ccccc1)Nc1ccc(S(=O)(=O)NC(=O)c2ccc(N3CCC([C@@H](O)c4ccccc4-c4ccc(Cl)cc4)CC3)cc2)cc1S(=O)(=O)C(F)(F)F [AZD4320] + CS(=O)(=O)CCNCc1ccc(-c2ccc3ncnc(Nc4ccc(OCc5cccc(F)c5)c(Cl)c4)c3c2)o1 [Lapatinib] (first compound max 1 µM, 7x7, partner max 10 µM)
- combination Emax [1]: 0.807
- combination Emax [2]: 1
- combination Emax [3]: 0.785
- combination Emax [4]: 0.97
- combination Emax [5]: 0.939
- combination Emax (KELLY (Neuroblastoma)): 0.994
- combination Emax [6]: 0.858
- combination Emax [7]: 0.69
- combination Emax [8]: 0.94
- combination Emax [9]: 0.505
- combination Emax [10]: 0.99
- combination Emax [11]: 0.392
- combination Emax (HOS (Osteosarcoma)): 0.348
- combination Emax [12]: 0.508
- combination Emax (T98G (Glioblastoma)): 0.741
- combination Emax [13]: 0.961
- Bliss excess [14]: 0.0305
- Bliss excess [15]: -0.0004
- Bliss excess [16]: 0.0245
- Bliss excess [17]: 0.0747
